Measured values published in ChEMBL document CHEMBL4251633, “Design, synthesis, biological evaluation and cocrystal structures with tubulin of chiral β-lactam bridged combretastatin A-4 analogues as potent antitumor agents” (Eur J Med Chem, 2018).
Active and inactive are the calls of the source. The rule behind the calls is not given here.

Columns and labels:
[1] = test system: A2780; experiment: cells; conditions: Homo sapiens, A2780, 48 h
Description: Antiproliferative activity against human A2780 cells after 48 hrs by MTT assay

[2] = test system: SK-OV-3; experiment: Antiproliferative activity against human SKOV3 cells after 48 hrs by MTT assay; conditions: SK-OV-3, 48 h
[3] = test system: A2780; experiment: Antitumor activity against human A2780 cells xenografted in Balb/c nude mouse assessed as isolated tumor weight inhibition at 8 mg/kg, ip once in every 2 days measured after 14 days; format: functional, organism-based
[4] = test system: HeLa; experiment: Antiproliferative activity against human HeLa cells after 48 hrs by MTT assay; format: functional, cell-based
[5] = test system: HeLa; experiment: Induction of apoptosis in human HeLa cells assessed as early apoptotic cells at 100 nM after 48 hrs by Annexin V-FITC/propidium iodide staining based flow cytometry (reference value: 0.7%); format: functional
[6] = Acute toxicity in ICR mouse assessed as survival rate at 150 mg/kg, ip measured on day 14 (reference value: 100%); format: organism-based; conditions: in vivo
[7] = test system: HeLa; experiment: Induction of apoptosis in human HeLa cells assessed as necrotic cells at 50 nM after 48 hrs by Annexin V-FITC/propidium iodide staining based flow cytometry (reference value: 0.9%); format: functional
[8] = organism: Sus scrofa; experiment: (§1) Inhibition of pig brain tubulin polymerization measured every 1 min for 20 mins by spectrophotometric method
[9] = as §1; parameters: species or system Sus scrofa
[10] = test system: HeLa; experiment: Cell cycle arrest in human HeLa cells assessed as accumulation at G2/M-phase at 25 to 50 nM after 24 hrs by propidium iodide staining based flow cytometry; format: functional
[11] = test system: Mus musculus; experiment: Acute toxicity in ICR mouse assessed as death at 100 to 200 mg/kg, ip measured after 4 days; format: organism-based; conditions: in vivo, 96 h
[12] = test system: Mus musculus; experiment: Acute toxicity in ICR mouse assessed as death at 100 to 275 mg/kg, ip measured after 5 to 14 days; format: organism-based; conditions: in vivo
[13] = organism: Homo sapiens; experiment: Disruption of microtubule structure in human SKOV3 cells assessed as decrease in density at 100 nM after 24 hrs by DAPI staining based immunofluorescence assay; format: cell-based
[14] = test system: Mus musculus; experiment: Anti-vascular activity in Balb/c nude mouse assessed as inhibition of VEGF-induced capillary blood vessel formation using sc injected matrigel plug supplemented with 100 nM test compound mixed with VEGF and measured after 1 week by matrigel plug assay; format: functional, organism-based
[15] = test system: HeLa; experiment: Induction of apoptosis in human HeLa cells assessed as early apoptotic cells at 50 nM after 48 hrs by Annexin V-FITC/propidium iodide staining based flow cytometry (reference value: 0.7%); format: functional
[16] = Acute toxicity in ICR mouse assessed as death administered ip measured up to 14 days; format: organism-based; conditions: in vivo
[17] = test system: HeLa; experiment: Induction of apoptosis in human HeLa cells assessed as early apoptotic cells at 200 nM after 48 hrs by Annexin V-FITC/propidium iodide staining based flow cytometry (reference value: 0.7%); format: functional
[18] = Acute toxicity in ICR mouse assessed as survival rate at 200 mg/kg, ip measured on day 14 (reference value: 100%); format: organism-based; conditions: in vivo
[19] = test system: HeLa; experiment: Induction of histone-H3 phosphorylation in human HeLa cells by Western blot analysis; format: cell-based
[20] = test system: HeLa; experiment: Induction of apoptosis in human HeLa cells after 48 hrs by Annexin V-FITC/propidium iodide staining based flow cytometry; format: functional, cell-based
[21] = test system: A2780; experiment: Antitumor activity against human A2780 cells xenografted in Balb/c nude mouse assessed as tumor volume inhibition at 8 mg/kg, ip once in every 2 days measured up to 14 days relative to control; format: functional
[22] = test system: Mus musculus; experiment: Acute toxicity in ICR mouse assessed as death at 150 mg/kg, ip measured after 3 days; format: organism-based; conditions: in vivo, 72 h
[23] = test system: Mus musculus; experiment: Toxicity in Balb/c nude mouse xenografted with human A2780 cells assessed as abnormality in liver at 8 mg/kg, ip once in every 2 days measured after 14 days by H and E staining based assay; format: organism-based; conditions: in vivo, 336 h
[24] = test system: HeLa; experiment: Inhibition of alpha-tubulin polymerization in human HeLa cells assessed as increase in ratio of supernatant faction to pellet fraction at 500 nM after 6 hrs by Western blot analysis; format: cell-based
[25] = Acute toxicity in ICR mouse assessed as survival rate at 125 mg/kg, ip measured on day 14 (reference value: 100%); format: organism-based; conditions: in vivo
[26] = test system: HeLa; experiment: Upregulation of Bax protein expression in human HeLa cells after 48 hrs by Western blot analysis; format: functional, cell-based
[27] = test system: HeLa; experiment: Induction of apoptosis in human HeLa cells assessed as live cells at 100 nM after 48 hrs by Annexin V-FITC/propidium iodide staining based flow cytometry (reference value: 96.5%); format: functional
[28] = test system: HeLa; experiment: Induction of apoptosis in human HeLa cells assessed as live cells at 200 nM after 48 hrs by Annexin V-FITC/propidium iodide staining based flow cytometry (reference value: 96.5%); format: functional
[29] = test system: A2780; experiment: Antitumor activity against human A2780 cells xenografted in Balb/c nude mouse assessed as induction of tumor necrosis at 8 mg/kg, ip once in every 2 days measured after 14 days by H and E staining based assay; format: functional, organism-based
[30] = test system: A2780; experiment: Antitumor activity against human A2780 cells xenografted in Balb/c nude mouse assessed as tumor weight inhibition at 8 mg/kg, ip once in every 2 days measured up to 14 days; format: functional, organism-based
[31] = test system: HeLa; experiment: Induction of apoptosis in human HeLa cells assessed as necrotic cells at 200 nM after 48 hrs by Annexin V-FITC/propidium iodide staining based flow cytometry (reference value: 0.9%); format: functional
[32] = target: Mitotic checkpoint serine/threonine-protein kinase BUB1 beta (Homo sapiens) (UniProt O60566); experiment: Induction of BubR1 hyperphosphorylation in human HeLa cells by Western blot analysis; format: cell-based
[33] = test system: HeLa; experiment: Cell cycle arrest in human HeLa cells assessed as accumulation at G2/M-phase at 50 nM after 24 hrs by propidium iodide staining based flow cytometry; format: functional
[34] = test system: Mus musculus; experiment: Toxicity in Balb/c nude mouse xenografted with human A2780 cells assessed as abnormality in kidney at 8 mg/kg, ip once in every 2 days measured after 14 days by H and E staining based assay; format: organism-based; conditions: in vivo, 336 h
[35] = test system: MDA-MB-231; experiment: Anticlonogenic activity against human MDA-MB-231 cells incubated for 48 hrs followed by replacement with fresh medium measured after 7 to 10 days by gentian violet staining based assay; format: functional, cell-based
[36] = test system: HeLa; experiment: Induction of apoptosis in human HeLa cells assessed as necrotic cells at 100 nM after 48 hrs by Annexin V-FITC/propidium iodide staining based flow cytometry (reference value: 0.9%); format: functional
[37] = test system: HeLa; experiment: Induction of apoptosis in human HeLa cells assessed as live cells at 50 nM after 48 hrs by Annexin V-FITC/propidium iodide staining based flow cytometry (reference value: 96.5%); format: functional
[38] = Growth inhibition of HOSEC at 1 uM after 48 hrs by MTT assay relative to control; conditions: human, HOSEC cells; read-out: GI
[39] = test system: Mus musculus; experiment: Acute toxicity in ICR mouse assessed as death at 100 mg/kg, ip measured after 2 days; format: organism-based; conditions: in vivo, 48 h
[40] = test system: Mus musculus; experiment: Anti-vascular activity in Balb/c nude mouse assessed as inhibition of VEGF-induced capillary blood vessel formation by measuring reduction in hemoglobin level using sc injected matrigel plug supplemented with 100 nM test compound mixed with VEGF and measured after 1 week by matrigel plug assay; format: functional, organism-based

Chain of Mitotic checkpoint serine/threonine-protein kinase BUB1 beta (Homo sapiens) (O60566 whole entry): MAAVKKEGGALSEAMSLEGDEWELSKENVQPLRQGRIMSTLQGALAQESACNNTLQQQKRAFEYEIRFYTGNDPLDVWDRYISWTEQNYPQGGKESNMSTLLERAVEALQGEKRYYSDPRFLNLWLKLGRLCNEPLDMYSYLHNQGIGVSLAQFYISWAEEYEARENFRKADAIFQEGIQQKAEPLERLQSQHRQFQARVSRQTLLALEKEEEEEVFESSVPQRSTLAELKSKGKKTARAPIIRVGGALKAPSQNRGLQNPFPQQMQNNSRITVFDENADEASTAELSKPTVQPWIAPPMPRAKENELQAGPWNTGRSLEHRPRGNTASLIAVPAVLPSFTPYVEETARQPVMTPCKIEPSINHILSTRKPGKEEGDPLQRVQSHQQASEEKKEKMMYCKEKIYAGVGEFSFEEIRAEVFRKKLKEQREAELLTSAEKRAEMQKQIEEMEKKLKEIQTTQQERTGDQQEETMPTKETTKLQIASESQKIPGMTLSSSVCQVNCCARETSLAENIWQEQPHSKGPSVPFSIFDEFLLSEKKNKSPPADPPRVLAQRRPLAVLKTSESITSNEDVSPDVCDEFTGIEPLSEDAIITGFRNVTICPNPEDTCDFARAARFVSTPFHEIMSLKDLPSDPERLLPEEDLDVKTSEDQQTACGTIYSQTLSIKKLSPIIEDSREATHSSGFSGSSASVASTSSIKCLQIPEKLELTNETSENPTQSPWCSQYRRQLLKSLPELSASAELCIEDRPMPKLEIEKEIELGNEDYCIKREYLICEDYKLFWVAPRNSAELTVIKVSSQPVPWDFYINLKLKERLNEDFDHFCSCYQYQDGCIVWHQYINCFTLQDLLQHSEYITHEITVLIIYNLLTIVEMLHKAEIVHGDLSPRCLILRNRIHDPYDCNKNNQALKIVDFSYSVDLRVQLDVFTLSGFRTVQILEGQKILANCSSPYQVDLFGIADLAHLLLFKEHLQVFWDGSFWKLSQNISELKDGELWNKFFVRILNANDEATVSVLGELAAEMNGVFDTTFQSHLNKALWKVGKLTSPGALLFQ

SMILES: COc1ccc([C@H]2[C@H](C)C(=O)N2c2cc(OC)c(OC)c(OC)c2)cc1O
- IC50 [1]: 2 nM
- IC50 [2]: 3 nM
- inhibition [3]: Active
- IC50 [4]: 1 nM
- Activity [5]: 35.2%
- survival at 14 day [6]: 40%
- Activity [7]: 5.3%
- inhibition [8]: Dose-dependent effect
- IC50 [9]: 1700 nM
- Activity [10]: Active
- Activity [11]: Non-Toxic
- Activity [12]: Non-Toxic
- Activity [13]: Active
- inhibition [14]: Active
- Activity [15]: 29.3%
- LD50 at 336 h [16]: 136 mg/kg
- Activity [17]: 37.5%
- survival at 14 day [18]: 30%
- Activity [19]: Dose-dependent effect
- Activity [20]: Dose-dependent effect
- inhibition in vivo at 8 mg/kg [21]: 76.3%
- Activity [22]: Non-Toxic
- Activity [23]: Non-Toxic
- tubulin polymerization inhibition (active/inactive) [24]: Active
- survival at 14 day [25]: 70%
- Activity [26]: Dose-dependent effect
- Activity [27]: 27.3%
- Activity [28]: 21.6%
- Activity [29]: Active
- inhibition [30]: Active
- Activity [31]: 7.2%
- Activity [32]: Dose-dependent effect
- Activity [33]: 100%
- Activity [34]: Non-Toxic
- Activity [35]: Dose-dependent effect
- Activity [36]: 7.5%
- Activity [37]: 42%
- inhibition at 48 h, 1 µM [38]: < 50%
- Activity [39]: Non-Toxic
- inhibition [40]: Active
